Here are results for 9 molecules from ChEMBL document CHEMBL3272022, “Analogs of luteinizing hormone-releasing hormone with increased biological activity produced by D-amino acid substitutions in position 6” (1976).

The subject of experiment [1] is Rattus norvegicus. As to the kind of experiment: Induction of FSH release in immature male rat at 100 ng, sc measured after 15 mins to 6 hrs post dose by RIA relative to LH-RH.
Experiment [2] has as its system Rattus norvegicus. As to the kind of experiment: Induction of luteinizing hormone release in immature male rat at 100 ng, sc measured after 15 mins to 6 hrs post dose by RIA relative to LH-RH.
Experiment [3] concerns Rattus norvegicus. The experiment in a line: Induction of luteinizing hormone release in ovariectomized estrogen/progesterone-treated rat at 1 ng, sc measured at 30 mins post dose by RIA (reference value: 5.3 +/- 1.5 ng/ml). In kind it is functional.
Experiment [4] has as its system Rattus norvegicus. The experiment in a line: Induction of luteinizing hormone release in ovariectomized estrogen/progesterone-treated rat at 5 ng, sc measured at 30 mins post dose by RIA (reference value: 5.3 +/- 1.5 ng/ml). In kind it is functional.
Experiment [5] relates to Rattus norvegicus. As to the kind of experiment: Induction of luteinizing hormone release in ovariectomized estrogen/progesterone-treated rat at 1 ng, sc measured at 60 mins post dose by RIA (reference value: 6.0+/- 0.4 ng/ml). In kind it is functional.
Experiment [6] deals with Rattus norvegicus. As to the kind of experiment: Induction of luteinizing hormone release in ovariectomized estrogen/progesterone-treated rat at 5 ng, sc measured at 60 mins post dose by RIA (reference value: 6.0+/- 0.4 ng/ml). In kind it is functional.
The subject of experiment [7] is Rattus norvegicus. The experiment in a line: Induction of luteinizing hormone release in ovariectomized estrogen/progesterone-treated rat at 10 ng, sc measured at 30 mins post dose by RIA (reference value: 5.3 +/- 1.5 ng/ml). In kind it is functional.
The test system of experiment [8] is Rattus norvegicus. The experiment in a line: Induction of luteinizing hormone release in ovariectomized estrogen/progesterone-treated rat at 50 ng, sc measured at 30 mins post dose by RIA (reference value: 5.3 +/- 1.5 ng/ml). In kind it is functional.
Experiment [9] concerns Rattus norvegicus. As to the kind of experiment: Induction of luteinizing hormone release in ovariectomized estrogen/progesterone-treated rat at 10 ng, sc measured at 60 mins post dose by RIA (reference value: 6.0+/- 0.4 ng/ml). In kind it is functional.
Experiment [10] has as its system Rattus norvegicus. As to the kind of experiment: Induction of luteinizing hormone release in ovariectomized estrogen/progesterone-treated rat at 50 ng, sc measured at 60 mins post dose by RIA (reference value: 6.0+/- 0.4 ng/ml). In kind it is functional.
The test system of experiment [11] is Rattus norvegicus. The experiment in a line: Induction of luteinizing hormone release in ovariectomized estrogen/progesterone-treated rat at 100 ng, sc measured after 30 mins post dose by RIA relative to LH-RH. In kind it is functional.

On to `CC(C)C[C@H](NC(=O)[C@@H](C)NC(=O)[C@H](Cc1ccc(O)cc1)NC(=O)[C@H](CO)NC(=O)[C@H](Cc1c[nH]c2ccccc12)NC(=O)[C@H](Cc1cnc[nH]1)NC(=O)[C@@H]1CCC(=O)N1)C(=O)N[C@@H](CCCNC(=N)N)C(=O)N1CCC[C@H]1C(=O)NCC(N)=O`, for which the Ratio in the experiment with Rattus norvegicus [1] was 13; with Rattus norvegicus [2], 7.

As to `CCNC(=O)[C@@H]1CCCN1C(=O)[C@H](CCCNC(=N)N)NC(=O)[C@H](CC(C)C)NC(=O)[C@@H](Cc1c[nH]c2ccccc12)NC(=O)[C@H](Cc1ccc(O)cc1)NC(=O)[C@H](CO)NC(=O)[C@H](Cc1c[nH]c2ccccc12)NC(=O)[C@H](Cc1c[nH]cn1)NC(=O)[C@@H]1CCC(=O)N1` [DESLORELIN], the figures for the Ratio with Rattus norvegicus [1] and in the experiment on Rattus norvegicus [2] were 6 and 7, respectively.

Consider `CC(C)C[C@H](NC(=O)CNC(=O)[C@H](Cc1ccc(O)cc1)NC(=O)[C@H](CO)NC(=O)[C@H](Cc1c[nH]c2ccccc12)NC(=O)[C@H](Cc1cnc[nH]1)NC(=O)[C@@H]1CCC(=O)N1)C(=O)N[C@@H](CCCNC(=N)N)C(=O)N1CCC[C@H]1C(=O)NCC(N)=O` [GONADORELIN], for which the Activity stood at 24.5 ng/mL in the experiment on Rattus norvegicus [3], 47 ng/mL in the experiment with Rattus norvegicus [4], 9.6 ng/mL in the experiment with Rattus norvegicus [5] and 15.4 ng/mL in the experiment with Rattus norvegicus [6].

With `CC(C)C[C@H](NC(=O)[C@@H](C)N(C)C(=O)[C@H](Cc1ccc(O)cc1)NC(=O)[C@H](CO)NC(=O)[C@H](Cc1c[nH]c2ccccc12)NC(=O)[C@H](Cc1cnc[nH]1)NC(=O)[C@@H]1CCC(=O)N1)C(=O)N[C@@H](CCCNC(=N)N)C(=O)N1CCC[C@H]1C(=O)NCC(N)=O`, the Activity in the experiment on Rattus norvegicus [7] was 22.9 ng/mL; with Rattus norvegicus [8], 47.8 ng/mL; in the experiment with Rattus norvegicus [9], 8.9 ng/mL; in the experiment with Rattus norvegicus [10] it was 18.6 ng/mL. In addition, the Ratio in the experiment on Rattus norvegicus [11] turned out to be 0.1.

As for `CC(C)C[C@H](NC(=O)[C@@H](CCC(=O)O)NC(=O)[C@H](Cc1ccc(O)cc1)NC(=O)[C@H](CO)NC(=O)[C@H](Cc1c[nH]c2ccccc12)NC(=O)[C@H](Cc1cnc[nH]1)NC(=O)[C@@H]1CCC(=O)N1)C(=O)N[C@@H](CCCNC(=N)N)C(=O)N1CCC[C@H]1C(=O)NCC(N)=O`, the Ratio with Rattus norvegicus [1] was determined as 1.5; in the experiment with Rattus norvegicus [2], 1.8.

For `CC(C)C[C@H](NC(=O)[C@@H](Cc1ccccc1)NC(=O)[C@H](Cc1ccc(O)cc1)NC(=O)[C@H](CO)NC(=O)[C@H](Cc1c[nH]c2ccccc12)NC(=O)[C@H](Cc1cnc[nH]1)NC(=O)[C@@H]1CCC(=O)N1)C(=O)N[C@@H](CCCNC(=N)N)C(=O)N1CCC[C@H]1C(=O)NCC(N)=O`, the Ratio with Rattus norvegicus [1] was found to be 20; in the experiment on Rattus norvegicus [2], 10.

As for `CC(C)C[C@H](NC(=O)[C@@H](Cc1c[nH]c2ccccc12)NC(=O)[C@H](Cc1ccc(O)cc1)NC(=O)[C@H](CO)NC(=O)[C@H](Cc1c[nH]c2ccccc12)NC(=O)[C@H](Cc1c[nH]cn1)NC(=O)[C@@H]1CCC(=O)N1)C(=O)N[C@@H](CCCNC(=N)N)C(=O)N1CCC[C@H]1C(=O)NCC(N)=O` [TRIPTORELIN], the Ratio is recorded as 21 with Rattus norvegicus [1] and 13 in the experiment on Rattus norvegicus [2].

For `CCNC(=O)[C@@H]1CCCN1C(=O)[C@H](CCCNC(=N)N)NC(=O)[C@H](CC(C)C)NC(=O)[C@@H](CC(C)C)NC(=O)[C@H](Cc1ccc(O)cc1)NC(=O)[C@H](CO)NC(=O)[C@H](Cc1c[nH]c2ccccc12)NC(=O)[C@H](Cc1c[nH]cn1)NC(=O)[C@@H]1CCC(=O)N1` [LEUPROLIDE], the Ratio in the experiment on Rattus norvegicus [1] was 11; in the experiment with Rattus norvegicus [2] it was 15.

For `CCNC(=O)[C@@H]1CCCN1C(=O)[C@H](CCCNC(=N)N)NC(=O)[C@H](CC(C)C)NC(=O)[C@@H](Cc1ccccc1)NC(=O)[C@H](Cc1ccc(O)cc1)NC(=O)[C@H](CO)NC(=O)[C@H](Cc1c[nH]c2ccccc12)NC(=O)[C@H](Cc1cnc[nH]1)NC(=O)[C@@H]1CCC(=O)N1`, the Ratio was found to be 7 with Rattus norvegicus [1] and 8 in the experiment with Rattus norvegicus [2].
